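Step 1: Grow cells in 96-well plates. Step 2: Expose to compound for 48 hours at 5 concentrations. Step 3: Interpolate endpoints linearly; if unreached, use highest concentration. GI50 is the concentration that inhibits growth by half.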 The source made the active and inactive calls. Rule as the data show it: active = GI50 up to about 1.1 µM and inactive = higher. Where only a bound is given, the exact number is not on record here.

Here are results for nine compounds from ChEMBL document CHEMBL1201862, “PubChem BioAssay data set” (2004).

Test systems include SNB-75; SF-539; SN12C; OVCAR-5; SNB-19; NCI-H23; NCI-H460; DMS-273; UACC-62; UACC-257; DLD-1; A498; Malme-3M; HT-29; HCT-15; A549; MOLT-4; KM12; EKVX; OVCAR-8.
Holding throughout (assay): growth of human tumour cells (NCI), 48 h

As to `CCC1CN2CCc3cc(OC)c(OC)cc3C2CC1CC1c2cc(OC)c(OC)cc2CCN1C(=O)C(N)Cc1ccccc1.[O-][Cl+3]([O-])([O-])O` (configuration not stated), the GI50 is 2.94 µM (inactive) in the test on SNB-75; 2.56 µM (inactive) in the test with SF-539; 2.35 µM (inactive) in the test on SN12C; 3.08 µM (inactive) with OVCAR-5; 1.85 µM (inactive) in the test on SNB-19; 2.42 µM (inactive) in the test on NCI-H23. The GI50 in the test on NCI-H460 was 0.538 µM (active); in the test on DMS-273, 1.98 µM (inactive); in the test with UACC-62, 3.11 µM (inactive); with UACC-257, 2.35 µM (inactive); in the test on DLD-1, 3.38 µM (inactive); in the test on A498, 3.24 µM (inactive). The GI50 in the test on Malme-3M was 2.77 µM (inactive); with HT-29, 0.486 µM (active); in the test with HCT-15 it was 1.72 µM; in the test on A549 it was 1.6 µM (inactive); in the test with MOLT-4, 0.239 µM (active); in the test on KM12 it was 1.77 µM (inactive). For the same compound, the GI50 in the test on EKVX is 1.26 µM (inactive); with OVCAR-8 it was 1.97 µM (inactive).
`O=S(=O)(CCBr)CCBr`: the GI50 with SNB-75 was 12.8 µM (inactive); in the test on SF-539, 6.22 µM (inactive); in the test on SN12C, 9.02 µM (inactive); in the test with OVCAR-5 it was 13.7 µM (inactive); in the test with SNB-19, 17.6 µM (inactive); in the test on NCI-H23 it was 6.52 µM (inactive). In addition, the GI50 in the test with NCI-H460 is 12 µM (inactive); with DMS-273, 4.59 µM (inactive); in the test with UACC-62 it was 2.96 µM (inactive); in the test on UACC-257, 3.82 µM (inactive); in the test on DLD-1, 2.86 µM (inactive); in the test with A498, 6.3 µM (inactive). The GI50 with Malme-3M was 3.17 µM (inactive); in the test on HT-29 it was 5.94 µM (inactive); in the test on HCT-15, 2.64 µM; in the test on A549, 13.9 µM (inactive); with MOLT-4 it was 2.58 µM (inactive); in the test on KM12, 13.9 µM (inactive). Moreover, the GI50 with OVCAR-8 is 2.32 µM (inactive).
As for `C[n+]1ccc(Nc2ccc(NC(=O)c3ccc(Nc4cc[n+](C)c5ccc([N+](=O)[O-])cc45)cc3[N+](=O)[O-])cc2)cc1`, the GI50 was > 57.4 µM (inactive) in the test with SNB-75; 22.8 µM (inactive) in the test on SF-539; 57.4 µM (inactive) in the test on SN12C; > 73.3 µM (inactive) with SNB-19; > 55.6 µM (inactive) in the test on NCI-H23; 25.7 µM (inactive) with NCI-H460. Further, the GI50 in the test with DMS-273 was 34.9 µM (inactive); with UACC-62, 26.1 µM (inactive); in the test with UACC-257 it was 24.3 µM (inactive); in the test with DLD-1, > 92 µM (inactive); with A498 it was 36.7 µM (inactive); with Malme-3M, 19.7 µM (inactive). Moreover, the GI50 was 44.8 µM with HCT-15; 22.5 µM (inactive) in the test with A549; 32.3 µM (inactive) in the test on MOLT-4; 65.9 µM (inactive) with KM12; 45.7 µM (inactive) with EKVX; 31.7 µM (inactive) in the test on OVCAR-8.
`CCN(CC)CCCOC(=O)/C=C/c1c(C)[nH]c(=O)[nH]c1=O`: the GI50 is > 625 µM (inactive) in the test with SNB-75; > 625 µM (inactive) in the test on SF-539; > 243 µM (inactive) in the test on SN12C; > 625 µM (inactive) in the test with OVCAR-5; > 625 µM (inactive) with SNB-19; > 625 µM (inactive) with NCI-H23. The GI50 with NCI-H460 is > 625 µM (inactive); with DMS-273, > 625 µM (inactive); in the test on UACC-62, > 625 µM (inactive); in the test on UACC-257, > 625 µM (inactive); in the test on DLD-1 it was > 625 µM (inactive); in the test on A498 it was > 95.1 µM (inactive). In addition, the GI50 with Malme-3M was > 625 µM (inactive); with HT-29 it was > 394 µM (inactive); in the test on HCT-15 it was over 625 µM; in the test with A549, > 625 µM (inactive); with MOLT-4, > 625 µM (inactive); in the test on KM12, > 625 µM (inactive). Further, the GI50 in the test with EKVX is > 625 µM (inactive); with OVCAR-8, 135 µM (inactive).
As for `O=C(O)CSc1nnc(/C=C/c2ccccc2)[nH]1`, the GI50 in the test with SNB-75, in the test with SF-539, in the test with SN12C, with OVCAR-5, in the test on SNB-19 and in the test on NCI-H23 was > 100 µM (inactive) throughout. In addition, the GI50 in the test with NCI-H460, in the test on DMS-273, in the test on UACC-62, in the test with UACC-257, in the test on DLD-1 and in the test on A498 was > 100 µM (inactive) each time. For the same compound, the GI50 is > 100 µM (inactive) with Malme-3M; > 100 µM (inactive) with HT-29; over 100 µM in the test on HCT-15; > 100 µM (inactive) in the test with A549; > 100 µM (inactive) in the test with MOLT-4; > 100 µM (inactive) in the test with KM12. The GI50 with EKVX and in the test with OVCAR-8 was > 100 µM (inactive) throughout.
For `CC(=O)C(=O)NC1/C=C(C)\C=C/C(O)C/C=C(C)\C=C/C(O)CC2OC(=O)C1(C)C(=O)C2C` (configuration not stated), the GI50 with SNB-75, in the test on SF-539, in the test on SN12C, in the test on OVCAR-5, with SNB-19 and with NCI-H23 was > 100 µM (inactive) each time. Also, the GI50 with NCI-H460, in the test with DMS-273, in the test with UACC-62, in the test on UACC-257, in the test with DLD-1 and with A498 was > 100 µM (inactive) each time. The GI50 in the test with Malme-3M was > 100 µM (inactive); with HT-29, > 100 µM (inactive); with HCT-15, over 100 µM; in the test on A549, > 100 µM (inactive); in the test with MOLT-4 it was > 31.2 µM (inactive); in the test with KM12, > 100 µM (inactive). The GI50 with EKVX and with OVCAR-8 was > 100 µM (inactive) each time.
Take `CSc1nc(NC2OC(CO)C(O)C(O)C2O)c(N)c(=O)n1C` (configuration not stated): the GI50 with SNB-75, in the test on SF-539, with SN12C, in the test with OVCAR-5, with SNB-19 and with NCI-H23 was > 100 µM (inactive) in each case. Further, the GI50 with NCI-H460, in the test with DMS-273, with UACC-62, in the test on UACC-257, in the test on DLD-1 and in the test with A498 was > 100 µM (inactive) throughout. Also, the GI50 is > 100 µM (inactive) in the test with Malme-3M; > 100 µM (inactive) in the test on HT-29; over 100 µM with HCT-15; > 100 µM (inactive) in the test with A549; > 100 µM (inactive) in the test with MOLT-4; > 100 µM (inactive) in the test on KM12. Further, the GI50 with EKVX and with OVCAR-8 was > 100 µM (inactive) each time.
For `COc1cc(O)c(Cc2ccccc2O)c(O)c1C(=O)CCc1ccccc1` [UVARETIN], the GI50 with SNB-75 is 6.92 µM (inactive); with SF-539 it was 5.41 µM (inactive); in the test with SN12C, 4.82 µM (inactive); with OVCAR-5, 4.6 µM (inactive); with SNB-19 it was 6.55 µM (inactive); with NCI-H23 it was 4.17 µM (inactive). The GI50 is 4.49 µM (inactive) with NCI-H460; 4.39 µM (inactive) in the test with DMS-273; 4.4 µM (inactive) in the test on UACC-62; 5.36 µM (inactive) in the test with UACC-257; 7.33 µM (inactive) with DLD-1; 1.48 µM (inactive) in the test with A498. Further, the GI50 in the test with Malme-3M was 4.89 µM (inactive); in the test on HT-29, 11.9 µM (inactive); with HCT-15, 5.71 µM; in the test on A549, 5.92 µM (inactive); in the test on MOLT-4 it was 3.85 µM (inactive); in the test with KM12, 6.81 µM (inactive). In addition, the GI50 is 6.19 µM (inactive) in the test on EKVX and 6.41 µM (inactive) with OVCAR-8.
With `CSC(=S)N(C)c1nc(N(C)C)s[s+]1`, the GI50 with SNB-75, in the test with SF-539, with SN12C, in the test on OVCAR-5, in the test with SNB-19 and in the test with NCI-H23 was > 100 µM (inactive) in each case. Besides, the GI50 in the test on NCI-H460 is > 100 µM (inactive); in the test on DMS-273, > 100 µM (inactive); with UACC-62, > 100 µM (inactive); with UACC-257 it was > 100 µM (inactive); in the test on DLD-1 it was > 100 µM (inactive); with A498, 44.4 µM (inactive). Moreover, the GI50 was > 100 µM (inactive) in the test on Malme-3M; > 100 µM (inactive) with HT-29; over 100 µM with HCT-15; 51.5 µM (inactive) with A549; > 100 µM (inactive) in the test on MOLT-4; > 100 µM (inactive) in the test on KM12. Besides, the GI50 in the test with EKVX and with OVCAR-8 was > 100 µM (inactive) in each case.
